Experimental data from patent US20260315653A1, “ANTICOAGULANT COMPOSITIONS COMPRISING ANTI-PLATELET AND ANTI-INFLAMMATORY DRUGS AND METHODS AND DEVICES FOR THEIR USE” (Elixir Medical Corporation, priority 2023, published 2026).
Where two headings read alike, the source gives them in different places.

Columns and labels:
[1] = tested on: blood clotting (citrated sheep blood); experiment: Activated clotting time (ACT) of EDTA or other anti-coagulant compounds in citrated sheep blood (Example 13)
Protocol: The activated clotting time (ACT) evaluation of anticoagulants was performed in Calcium-reconstituted sheep blood and recorded employing the Hemochron® Response device.
(§1) The ACT measurements were made in citrated sheep blood. 1.9 ml of citrated sheep blood was added to a test tube containing an activator (Hemochron@Celite@ ACT tubes, Lot F8FTE026 from Accriva Diagnostics, Inc.). A target amount of EDTA or other anti-coagulant compounds solution was then added into the test tube. The test tube was gently swirled so that the blood and EDTA or other anti-coagulant compounds was well-mixed. 0.1 ml of 0.3M calcium chloride was then added. The tube was gently shaken before being inserted into the Hemochron Response detector. The ACT read out was recorded and reported. The ACT of the control blood in the absence of any EDTA or other anti-coagulant compounds as first determined to establish a baseline. Then ACT was determined in the presence of different concentrations of EDTA or analogues as a single component.

[2] = tested on: blood clotting (citrated sheep blood); experiment: Net activated clotting time (net ACT) in citrated sheep blood (Examples 3-5); parameters: key: seconds; measured ACT minus blood control ACT (165 s); settings: single drug, blood control 165 seconds
Protocol: The activated clotting time (ACT) evaluation of anticoagulants was performed in calcium citrate sheep blood and recorded employing the Hemochron® Response device. The ACT measurements were made in citrated sheep blood. 1.9 ml of citrated sheep blood was added to a test tube containing an activator (Hemochron@Celite@ ACT tubes, Lot F8FTE026 from Accriva Diagnostics, Inc.). A target amount of drug solution was then added into the test tube. The test tube was gently swirled so that the blood and drug were well-mixed. 0.1 ml of 0.3M calcium chloride was then added. The tube was gently shaken before being inserted into the Hemochron Response detector. The ACT read out was recorded and reported. The ACT of the control blood in the absence of any drug as first determined to establish a baseline. Here the blood control measured is 165 seconds. Then ACT was determined in the presence of different concentrations of the drug as a single component. In the following study, the net ACT (measured ACT minus blood control ACT) was utilized to visualize the synergistic effect of direct factor Xa inhibitor (Rivaroxaban) and direct factor IIa inhibitor (Argatroban) drug combinations. The figures are presented in ng/mg wherein the density of blood and tissue are approximately the same.
Example 4 is the continuation of example 3, which employed the same method as in example 3. The only difference is that the direct factor Xa inhibitor Edoxaban is used in place of direct factor Xa inhibitor Rivaroxaban.
Example 5 is the continuation of example 3, which employed the same method as in example 3. The only difference is that the direct factor Xa inhibitor Betrixaban is used in place of direct factor Xa inhibitor Rivaroxaban.

[3] = tested on: blood clotting (heparinized sheep blood); experiment: Net ACT initiated by platelet activation factor (PAF) and CaCl2 in heparinized sheep blood (Examples 6-11)
Protocol: In order to examine the potential synergistic effects between anti-inflammatory agents, direct factor Xa inhibitors, direct factor IIa inhibitors, antiplatelets (P2Y12 inhibitor and glycoprotein IIb/IIIa inhibitor, platelet activation factor and CaCl2 were utilized by measuring ACT. Heparinized sheep blood was used to preserve platelet function.
The activated clotting time (ACT) evaluation initiated by platelet activation factor (PAF) and calcium chloride (CaCl2) was performed in heparinized sheep blood and recorded employing the Hemochron® Response device. […] A target amount of drug solution was then added into the test tube. The test tube was gently swirled so that the blood and drug were well-mixed. […] The tube was gently shaken before being inserted into the Hemochron Response detector. The ACT read out was recorded and reported. The ACT of the control heparinized sheep blood in the absence of any drug as first measured to establish a baseline. […] Then ACT was measured in the presence of different concentrations of the drug measured. Selected drug combinations were then tested to evaluate for potential synergy in action between the drug combination. The net ACT (ACT minus blood control ACT) was utilized to visualize the synergistic effect. […] The figures are presented in ng/mg wherein the density of blood and tissue are approximately the same.

[4] = tested on: blood clotting (fresh pig blood); experiment: Activated clotting time (ACT) of EDTA or analogues in fresh pig blood (Example 12); settings: for Increase in clotting time compared to control: control 154 sec; for blood coagulation compared to the blood control: EDTA 200 ng/mg, sodium salts 300 ng/mg
Protocol: The activated clotting time (ACT) evaluation of EDTA or analogues was performed in fresh pig blood and recorded employing the Hemochron® Response device.
as §1, with “fresh pig” for “citrated sheep”, “1.0” for “1.9”, “drug” for “EDTA or other anti-coagulant compounds”

[5] = pH of 1 mg/ml EDTA or analogue in water or phosphate buffer; assay type: physicochemical
From the text: Based on the pH of EDTA or analogues in water and in 0.1M phosphate buffered saline as show in Table 2, EDTA disodium salt or dipotassium salt has a pH close to neutral pH in human body (6.42-6.92), whereas EDTA tetrasodium or trisodium has a very basic pH (>8.0) in human body. EDTA disodium or dipotassium is preferred in the examples.

[6] = as above; assay type: physicochemical; settings: 1 mg/ml in 0.01 M pH 7.4 phosphate buffer, 21.8-22.3 ° C.
porcine coronary artery = experiment: In vivo porcine coronary stent implantation: fibrin score and late lumen loss (Examples 25-26); settings: Table 9, day 7
Protocol: The drug eluting stent systems containing different anticoagulants prepared as described in Example 11 were evaluated at 3 hours, 6 hours, 1 day, 3 days, 6 days, 7 days, or 28 days following implantation in a porcine coronary artery model.
The porcine model was chosen as this model has been used extensively for stent and angioplasty studies resulting in a large volume of data on the vascular response properties and its correlation to human vascular response (Schwartz et al, Circulation. 2002; 106:1867 1873). The animals were housed and cared for in accordance with the Guide for the Care and Use of Laboratory Animals as established by the National Research Council.
After induction of anesthesia, the left or right femoral artery was accessed using standard techniques and an arterial sheath was introduced and advanced into the artery. Vessel angiography was performed under fluoroscopic guidance, a 7 Fr. guide catheter was inserted through the sheath and advanced to the appropriate location where intracoronary nitroglycerin was administered. An appropriate implantation segment of coronary artery was randomly selected and a 0.014″ guidewire inserted. Quantitative Coronary Angiography (QCA) was performed to document the results. The appropriately size stent was advanced to the deployment site. The balloon was inflated at a steady rate to a pressure sufficient to achieve a balloon to artery ratio of approximately 1.1 to 1.0.
Follow up angiography was performed at the designated timepoint for each of the animals. Late lumen loss (LLL) can be expressed as: […]
The LLL is an indicator of the amount smooth muscle cell (SMC) proliferation or inhibition. It is used to measure efficacy between drugs for SMC proliferation inhibition. The smaller the LLL, the better the efficacy of the drug.
Stented portions of coronary arteries were embedded in methyl methacrylate (MMA), then divided into a target of at least three blocks of approximately similar lengths for histology evaluation. Quantitative histopathological evaluation of stented artery sections was then performed and scored as indicated. For Fibrin formation, scores ranged from 0 to 3, with a score of 0 indicating absent or rare minimal spotting around struts of the stent, a score of 1 indicating the presence of fibrin in small amounts localized only around the struts, a score of 2 indicating the moderately abundant or denser presence of fibrin around and extending beyond the struts, and a score of 3 indicating the presence of abundant and dense fibrin and/or bridging of the fibrin between the struts. The mean score was calculated and reported. The mean of each section was then averaged to provide a mean fibrin score per stent. The smaller the fibrin score, the better efficacy.

[7] = 167 ng/mg, blood control 202 sec
[8] = 1 mg/ml in d-water, 21.8-22.0 ° C.
[9] = single drug, 0.05 ng/mg, PAF & CaCl2, blood control 235 seconds

CCCCCCCCCCCCCC[N+](C)(C)Cc1ccccc1.[Cl-] [Benzyldimethyltetradecyl-ammonium chloride]
Clotting time (ACT) ([1]; 67 ng/mg): 316 s
Increase in clotting time compared to control ([1]; 67 ng/mg): 114 s
Clotting time (ACT) ([1]; 100 ng/mg): 421 s
Increase in clotting time compared to control ([1]; 100 ng/mg): 219 s
Clotting time (ACT) ([1]; 133 ng/mg): 983 s
Increase in clotting time compared to control ([1]; 133 ng/mg): 781 s
Clotting time (ACT) [1, 7]: 1370 s
Increase in clotting time compared to control [1, 7]: 1168 s

COc1ccc(NC(=O)c2ccc(C(=N)N(C)C)cc2)c(C(=O)Nc2ccc(Cl)cn2)c1 [Betrixaban]
net ACT ([2]; 0.3 ng/mg): 21

COc1cc2c(c(OC)c1OC)-c1ccc(OC)c(=O)cc1[C@@H](NC(C)=O)CC2 [Colchicine]
net ACT [3]: 41 s

O=C(O)C(S)C(S)C(=O)O (stereo not drawn) [Dimercaptosuccinic acid (DMSA), Dimercaptosuccinic acid]
Clotting time (ACT) ([4]; 200 ng/mg): 151 s
Increase in clotting time compared to control ([4]; 200 ng/mg): -3 s

O=C(O)CN(CCN(CC(=O)O)CC(=O)O)CC(=O)O [EDTA dipotassium]
pH [5, 8]: 6.25
pH ([5]; in water and phosphate buffered saline, listed as dipotassium salt): 6.42-6.92
pH [6]: 6.93

CC(=O)OCOC(=O)CN(CCN(CC(=O)OCOC(C)=O)CC(=O)OCOC(C)=O)CC(=O)OCOC(C)=O [EDTA tetra acetoxymethyl ester]
Clotting time (ACT) ([4]; 500 ng/mg): 158 s
Increase in clotting time compared to control ([4]; 500 ng/mg): 4 s

O=C(O)CN(CCN(CC(=O)O)CC(=O)O)CC(=O)O [EDTA tri sodium]
pH [5, 8]: 9.21
pH ([5]; in water and phosphate buffered saline): > 8.0
pH [6]: 7.77

O=C(O)CN(CCN(CC(=O)O)CC(=O)O)CC(=O)O [EDTA, ethylenediaminetetraacetic acid]
Clotting time (ACT) ([4]; 75 ng/mg): 179 s
Increase in clotting time compared to control ([4]; 75 ng/mg): 25 s
Clotting time (ACT) ([4]; 100 ng/mg): 247 s
Increase in clotting time compared to control ([4]; 100 ng/mg): 93 s
Clotting time (ACT) ([4]; 150 ng/mg): 275 s
Increase in clotting time compared to control ([4]; 150 ng/mg): 121 s
Clotting time (ACT) ([4]; 200 ng/mg): >500 s
Increase in clotting time compared to control ([4]; 200 ng/mg): >346 s
blood coagulation compared to the blood control [4]: significant delayed blood coagulation

O=C(O)CN(CCN(CC(=O)O)CC(=O)O)CC(=O)O [EDTA•2Na•2H2O]
Clotting time (ACT) ([4]; 100 ng/mg): 191 s
Increase in clotting time compared to control ([4]; 100 ng/mg): 37 s
Clotting time (ACT) ([4]; 200 ng/mg): 264 s
Increase in clotting time compared to control ([4]; 200 ng/mg): 110 s
Clotting time (ACT) ([4]; 300 ng/mg): 374 s
Increase in clotting time compared to control ([4]; 300 ng/mg): 220 s
blood coagulation compared to the blood control ([4]; listed as EDTA disodium salt): The same trend
pH ([5]; 1 mg/ml in d-water, 21.8-22.0 ° C., listed as EDTA disodium): 6.42
pH ([5]; in water and phosphate buffered saline, listed as EDTA disodium salt): 6.42-6.92
pH ([6]; listed as EDTA disodium): 6.92

CN1CCc2nc(C(=O)N[C@@H]3C[C@@H](C(=O)N(C)C)CC[C@@H]3NC(=O)C(=O)Nc3ccc(Cl)cn3)sc2C1 [Edoxaban]
net ACT ([2]; 0.15 ng/mg): 42
net ACT ([2]; 0.3 ng/mg): 87

CCCSc1nc(N[C@@H]2C[C@H]2c2ccc(F)c(F)c2)c2nnn([C@@H]3C[C@H](OCCO)[C@@H](O)[C@H]3O)c2n1 [Ticagrelor]
net ACT [3, 9]: 18 s

CCCCS(=O)(=O)N[C@@H](Cc1ccc(OCCCCC2CCNCC2)cc1)C(=O)O [Tirofiban]
net ACT [3, 9]: 9 s

Dalteparin
LLL / smooth muscle cell proliferation compared to bare metal control stents (porcine coronary artery): larger LLLs compared to control
inhibition of fibrin formation compared to bare metal control stents (porcine coronary artery): not effective at inhibiting fibrin formation
